Assay results taken from article PMC9578020, “Design, synthesis, molecular modeling, and bioactivity evaluation of 1,10-phenanthroline and prodigiosin (Ps) derivatives and their Copper(I) complexes against mTOR and HDAC enzymes as highly potent and effective new anticancer therapeutic drugs” (Frontiers in Pharmacology, 2022).
Where two headings read alike, the source gives them in different places.

Experiments:
[1] = system: MCF10A; experiment: CCK8 cytotoxicity test on normal cell line MCF10A
Description: (§1) MDA-MB-231 (231) and HTB131 were grown with RPIM-1640 medium (with 10% Fetal Bovine Serum and 2% Penicillin-Streptomycin Solution). MDA-MB-231BR (231BR), CRL-1620 (CRL), and MCF10A were grown with DMEM (with 10% Fetal Bovine Serum and 2% Penicillin-Streptomycin Solution). HTB22 was grown with EMEM (with 10% Fetal Bovine Serum and 2% Penicillin-Streptomycin Solution). Cell lines were taken out from liquid nitrogen and thawed in a 37°C water bath. After thawing, cell cultures were transferred to 75 cm^2 flasks and incubated at 37°C with 5% CO2 for 4–7 days. After reaching 80% of cell confluence, cells were ready for subculturing or testing.
(§2) Anticancer activity tests were performed using a Cell Counting Kit-8 (CCK8, SigmaAldrich) following manufacturer’s instruction ([Shen et al., 2016]). Briefly, 100 µl of diluted cell suspension (approximately 10000 cells) was transferred to 96-well plate, incubated at 37°C with 5% CO2 for 24 h. Then, the compounds were diluted into a serial of concentrations in DMSO. Next, 0.5 µl of diluted compounds were added to 100 µl of cell medium and gently mixed, resulting in the final concentration of DMSO at 0.5%. 100 µl of the compound contained medium were then used to replace the original medium and incubated at 37°C for 48 h. After incubation with compounds, 10 µl of CCK8 reagent was added to each well and mixed by gently tapping the plate. Then, the plate was incubated at 37°C for 2–4 h until the orange color was dark enough to measure. The plate was measured using a Multiskan microplate reader (Fisher Scientific) at 450 nm. The IC50 was calculated by SPSS statistics (IBM). […] All cytotoxicity tests were performed in six biological replicates. Each compound was performed two cycles of screening: primary screening using 10 times serial dilution to determine the approximate concentration and then secondary screening using a narrow concentration range to acquire the accurate IC50.
(§3) The newly synthesized molecules in which their binding affinities were predicted in silico were tested on five different breast cancer lines, MDA-MB-231 (231), MDA-MB-361 (361), HTB131, HTB22, and MDA-MB-231BR (231BR), and one brain cancer cell line, CRL-1620 (CRL). […] Among these cell lines, 231BR attracted most of our interest because it is a brain metastatic specific breast cancer cell line that has 100% rate of brain metastasis and cannot migrate to any other organs ([Yoneda et al., 2001]). The anticancer capacities of each compound were first screened by 10 times dilution to generate different molar concentrations ranging in 5 orders of magnitudes. This wide concentration range was applied for primary screening (Supplementary Table S3) to narrow down the targets. The approximate IC50 was estimated in the primary screening step and used to design the concentration range of the secondary cytotoxicity tests (Supplementary Table S4). […] Anticancer drug taxol (paclitaxel) was used as the reference to estimate the efficacy of each compound. […] The anticancer activity against 231BR is of highest interest. Meanwhile, the same treatments were performed against the normal breast cell line, MCF10A, to test their cytotoxicity. […] A negative logarithm of IC50 was applied to represent the corresponding anticancer activity.

[2] = system: MDA-MB-231BR (231BR); experiment: CCK8 anticancer activity / cytotoxicity test, 231BR; type: cell-based
Description: (§4) The IC50 was calculated by SPSS statistics (IBM). […] All cytotoxicity tests were performed in six biological replicates.
(§5) The anticancer activity against 231BR is of highest interest. […] Figure 3 depicts the anticancer activities of these compounds.

[3] = system: HTB131; experiment: CCK8 anticancer activity / cytotoxicity test, HTB131; type: cell-based
[4] = system: MDA-MB-361 (361); experiment: CCK8 anticancer activity / cytotoxicity test, 361; type: cell-based
Description: as §4, §5

[5] = system: CRL-1620 (CRL); experiment: CCK8 anticancer activity / cytotoxicity test, CRL; type: cell-based
[6] = system: MDA-MB-231 (231); experiment: CCK8 anticancer activity / cytotoxicity test, 231; type: cell-based, human
[7] = CCK8 cytotoxicity test on normal cell line MCF10A; conditions: human, MCF10A normal breast cells
Description: as §1, §2, §3

[8] = system: HTB22; experiment: CCK8 anticancer activity / cytotoxicity test, HTB22; type: cell-based; conditions: HTB22, 48 h, 10 times serial dilution; read-out: Approximate IC50, primary screening
Description: as §4, §5

[9] = 231BR, 48 h, 10 times serial dilution, read-out: Approximate IC50, primary screening
[10] = HTB131, 48 h, 10 times serial dilution, read-out: Approximate IC50, primary screening
[11] = 231BR, 48 h, narrow concentration range, read-out: IC50, secondary cytotoxicity test
[12] = HTB131, 48 h, narrow concentration range, read-out: IC50, secondary cytotoxicity test
[13] = CRL, 48 h, narrow concentration range, read-out: IC50, secondary cytotoxicity test
[14] = CRL, 48 h, 10 times serial dilution, read-out: Approximate IC50, primary screening

Compound: COc1ccc(-c2ccc3ccc4ccc(-c5ccc(OC)cc5)nc4c3n2)cc1.Cc1cc2ccc1OCCOCCOCCOCCOCCOc1ccc(cc1C)-c1ccc3ccc4ccc-2nc4c3n1.F[P-](F)(F)(F)(F)F.[Cu+] [Compound C1]
- IC50 [1]: 1000 nM
- IC50 [2]: 597 nM
- IC50 [2, 9]: < 10000 nM
- IC50 [3]: 228 nM
- IC50 [4]: 6500 nM
- IC50 [5]: 315 nM
- IC50 [6]: 403 nM

Compound: CCC1=NC(=Cc2[nH]c(-c3cn[nH]c3)cc2OC)C=C1.CCC1=NC(=Cc2[nH]c(-c3cn[nH]c3)cc2OC)C=C1.F[P-](F)(F)(F)(F)F.[Cu+] [Compound C8]
- IC50 [2, 9]: 48500 nM

Compound: CCC1=NC(=Cc2[nH]c(-c3ccn[nH]3)cc2OC)C=C1.CCC1=NC(=Cc2[nH]c(-c3ccn[nH]3)cc2OC)C=C1.F[P-](F)(F)(F)(F)F.[Cu+] [Compound C9]
- IC50 [3, 10]: 10200 nM

Compound: CCC1=NC(=Cc2[nH]c(-c3ncc[nH]3)cc2OC)C=C1.CCC1=NC(=Cc2[nH]c(-c3ncc[nH]3)cc2OC)C=C1.F[P-](F)(F)(F)(F)F.[Cu+] [Compound C10]
- IC50 ([1]; read-out: IC50, secondary cytotoxicity test, MCF10A normal cell line, 48 h, Table S4): 1400 nM
- IC50 [2, 11]: 2200 nM
- IC50 [3, 12]: 2170 nM
- IC50 [5, 13]: 1600 nM
- IC50 ([6]; 231, 48 h, narrow concentration range, read-out: IC50, secondary cytotoxicity test): 2860 nM

Compound: CCC1=NC(=Cc2[nH]c(-c3ccc4[nH]ccc4c3)cc2OC)C=C1.CCC1=NC(=Cc2[nH]c(-c3ccc4[nH]ccc4c3)cc2OC)C=C1.F[P-](F)(F)(F)(F)F.[Cu+] [Compound C14]
- IC50 ([1]; read-out: Approximate IC50, primary screening, MCF10A normal cell line, 48 h, 10 times serial dilution): > 385000 nM
- anticancer activity increase of copper(I) complex compared with its ligand ([2]; 231BR, C14 compared with L14): 5.9 times
- IC50 [5, 14]: 38300 nM

Compound: CCC1=NC(=Cc2[nH]c(-c3cccc4cc[nH]c34)cc2OC)C=C1.CCC1=NC(=Cc2[nH]c(-c3cccc4cc[nH]c34)cc2OC)C=C1.F[P-](F)(F)(F)(F)F.[Cu+] [Compound C15]
- IC50 [2, 9]: 31900 nM

Compound: CCC1=N/C(=C\c2[nH]c(-c3cccn3C(=O)OC(C)(C)C)cc2OC)C=C1 [Compound L7]
- IC50 at 48 h [7]: 3930 nM
- IC50 ([1]; Homo sapiens, MCF-10A, 48 h, read-out: Approximate IC50, primary screening): 75 to 750 nM
- IC50 [2, 9]: 75 nM
- IC50 [2, 11]: 46.3 nM
- IC50 ([2]; 231BR, 48 h, read-out: IC50, secondary cytotoxicity test): 0.017 µg/mL
- IC50 [3, 10]: 75 to 750 nM
- IC50 [3, 12]: 139 nM
- IC50 ([3]; HTB131, 48 h, read-out: IC50, secondary cytotoxicity test): 0.0512 µg/mL
- IC50 ([4]; Homo sapiens, MDA-MB-361, 48 h, read-out: IC50, secondary cytotoxicity test): 2.12 µg/mL
- IC50 ([4]; Homo sapiens, MDA-MB-361, 361, 48 h, 10 times serial dilution, read-out: Approximate IC50, primary screening): 750 to 7500 nM
- IC50 ([4]; Homo sapiens, MDA-MB-361, 361, 48 h, Table S4, read-out: IC50, secondary cytotoxicity test): 5790 nM
- IC50 [8]: 750 to 7500 nM
- IC50 [5, 14]: 750 to 7500 nM
- IC50 [5, 13]: 409 nM
- IC50 ([5]; CRL, 48 h, read-out: IC50, secondary cytotoxicity test): 0.15 µg/mL
- IC50 ([6]; Homo sapiens, MDA-MB-231, 48 h, read-out: IC50, secondary cytotoxicity test): 0.0278 µg/mL
- IC50 ([6]; Homo sapiens, MDA-MB-231, 231, 48 h, 10 times serial dilution, read-out: Approximate IC50, primary screening): 75 to 750 nM
- IC50 ([6]; Homo sapiens, MDA-MB-231, 231, 48 h, narrow concentration range, read-out: IC50, secondary cytotoxicity test): 75.8 nM
